# Measured values from patent publication US20200330409A1, “INJECTABLE COMPOSITION COMPRISING HYALURONIDASE FOR REMOVING LOCAL FAT” (priority 2019, published 2020).
# System: local fat
# Assay: Clinical trials on hyaluronidase unit dose (efficacy threshold, diffusion range)
# Format: in vivo
# Details: per injection
# Method: It was ascertained from clinical trials that at the hyaluronidase unit dose of 300 IU to 600 IU, it was possible to ensure adequate fat removing effect while minimizing side effects. It was also shown in clinical trials that at the above dose range, if the injectable composition is administered in a volume of 1 cc containing 300 IU of hyaluronidase, the diameter of the diffusion range is about 1 cm. Thus, with the hyaluronidase dose set at 300 IU to 600 IU, by injecting the composition at a volume of 0.5 to 2 cc depending on the hyaluronidase dose and with an interval of 0.5 to 1.5 cm between injection points, injection at narrow intervals is possible, and consequently, lipolysis occurs evenly. Furthermore, a lifting effect occurs concomitantly where skin resilience is improved by the promotion of collagen production through the stimulation of skin by the injection needle. […] Thus, by administering an injectable composition of the present disclosure having the above compositional ranges, the side effects from drug use are minimized while fat removal over a wide area can be carried out using minimal volumes. It was shown in clinical trials that at a hyaluronidase dose of 300 IU, the diameter of the diffusion range for the injectable composition is about 1 cm. […]
substance,measurement,value
hyaluronidase,minimum amount of hyaluronidase exhibiting efficacy,300 IU
